Data from PubChem BioAssay AID1259408 (Genetic Toxicology Data Bank (GENE-TOX), 2018).
Calls of active or inactive are those of the source. The rule behind the calls is not given here.

System: GENE-TOX genotoxicity assays, various organisms and cells
Assay: GENE-TOX mutagenicity studies
Settings: for call: Assay Type: In vivo carcinogenicity studies
[1] = Species/Cell Type: Drosophila melanogaster, Assay Type: Sex-linked recessive lethal gene mutation, Assay Code: SRL+, Evaluation Type: Evaluation A (Pre-1980)
[2] = Species/Cell Type: Mammalian polychromatic erythrocytes, Assay Type: Micronucleus test, chromosome aberrations, Assay Code: MNT+, Evaluation Type: Evaluation B (Post-1980)
[3] = Species/Cell Type: Nonhuman, Assay Type: Sister-chromatid exchange (SCE) in vivo, Assay Code: SC3T, Evaluation Type: Evaluation B (Post-1980)
[4] = Species/Cell Type: Salmonella typhimurium (one or more of the five standard strains: TA98, TA100, TA1535, TA1537, and TA1538), Assay Type: Histidine reverse gene mutation, Ames assay, Assay Code: SALT, Evaluation Type: Evaluation A (Pre-1980)
[5] = Species/Cell Type: Salmonella typhimurium (one or more of the five standard strains: TA98, TA100, TA1535, TA1537, and TA1538), Assay Type: Histidine reverse gene mutation, Ames assay, Assay Code: SAL+, Evaluation Type: Evaluation A (Pre-1980)
[6] = Species/Cell Type: Human diploid fibroblasts, Assay Type: Unscheduled DNA synthesis (UDS) in vitro, DNA effects, Assay Code: UDH-, Evaluation Type: Evaluation A (Pre-1980)
[7] = Species/Cell Type: Salmonella typhimurium (one or more of the five standard strains: TA98, TA100, TA1535, TA1537, and TA1538), Assay Type: Histidine reverse gene mutation, Ames assay, Assay Code: SAL+*, Activation: With metabolic activation, Evaluation Type: Evaluation A (Pre-1980)
[8] = Species/Cell Type: Neurospora crassa, Assay Type: Reverse gene mutation, Assay Code: NER+, Evaluation Type: Evaluation A (Pre-1980)
[9] = Species/Cell Type: Bacillus subtilis (H17 vs M45), Assay Type: Rec-assay, spot test, DNA effects (bacterial DNA repair), Assay Code: REW+, Evaluation Type: Evaluation A (Pre-1980)

**Q.** Which results are given for `F`?
**A.** mutagenic call (Species/Cell Type: Allium cepa, Assay Type: Chromosome aberrations, Assay Code: ALC+D, Dose Response: With dose response, Evaluation Type: Evaluation A (Pre-1980)): active; positive; mutagenic call (Species/Cell Type: Drosophila melanogaster, Assay Type: Aneuploidy, partial sex chromosome loss, chromosome aberrations, Assay Code: DAPT, Evaluation Type: Evaluation A (Pre-1980)): no conclusion; mutagenic call (Species/Cell Type: Drosophila melanogaster, Assay Type: Aneuploidy, sex chromosome gain, chromosome aberrations, Assay Code: DAG-F, Evaluation Type: Evaluation A (Pre-1980)): inactive; negative; mutagenic call (Species/Cell Type: Drosophila melanogaster, Assay Type: Aneuploidy, whole sex chromosome loss, chromosome aberrations, Assay Code: DAC+M, Evaluation Type: Evaluation A (Pre-1980)): active; positive; mutagenic call [1]: active; positive; mutagenic call (Species/Cell Type: Drosophila melanogaster, Assay Type: Sex-linked recessive lethal gene mutation, Assay Code: SRLT, Evaluation Type: Evaluation A (Pre-1980)): no conclusion; mutagenic call (Species/Cell Type: Human lymphocytes, Assay Type: Sister-chromatid exchange (SCE) in vitro, Assay Code: SCL+, Evaluation Type: Evaluation B (Post-1980)): active; positive; mutagenic call (Species/Cell Type: Human lymphocytes, Assay Type: Sister-chromatid exchange (SCE) in vitro, Assay Code: SCLT, Evaluation Type: Evaluation B (Post-1980)): no conclusion; mutagenic call (Species/Cell Type: Human, Assay Type: Sister-chromatid exchange (SCE) in vitro, Assay Code: SC1+, Evaluation Type: Evaluation B (Post-1980)): active; positive; mutagenic call (Species/Cell Type: Human, Assay Type: Sister-chromatid exchange (SCE) in vitro, Assay Code: SC1T, Evaluation Type: Evaluation B (Post-1980)): no conclusion; mutagenic call [2]: active; positive; mutagenic call (Species/Cell Type: Neurospora crassa, Assay Type: Aneuploidy, chromosome aberrations, Assay Code: NEN-, Evaluation Type: Evaluation A (Pre-1980)): inactive; negative; mutagenic call (Species/Cell Type: Nonhuman lymphocytes or leukocytes, Assay Type: Chromosome aberrations in vivo, Assay Code: CY%-, Evaluation Type: Evaluation A (Pre-1980)): inactive; negative; mutagenic call (Species/Cell Type: Nonhuman, Assay Type: Sister-chromatid exchange (SCE) in vivo, Assay Code: SC3-, Evaluation Type: Evaluation A (Pre-1980)): inactive; negative; mutagenic call [3]: no conclusion; mutagenic call (Species/Cell Type: Saccharomyces cerevisiae, Assay Type: Mitotic recombination or gene conversion, Assay Code: YEC-, Evaluation Type: Evaluation A (Pre-1980)): inactive; negative; mutagenic call [4]: no conclusion

**Q.** How did the mutagenic call [5] turn out when `O=[N+]([O-])c1ccc(N=Nc2ccccc2)cc1` was run?
**A.** active; positive

**Q.** For `COC(=O)Nc1ncc(-c2ccc(OC)cc2)[nH]1`, which mutagenic call (Species/Cell Type: Salmonella typhimurium, Assay Type: Forward and reverse gene mutation, host-mediated assay, Assay Code: HMA+, Evaluation Type: Evaluation A (Pre-1980)) is on record?
**A.** active; positive

**Q.** For `COc1ccc(C(c2ccc(OC)cc2)C(Cl)(Cl)Cl)cc1`, which mutagenic call (Species/Cell Type: Bacillus subtilis (H17 vs M45), Assay Type: Rec-assay, spot test, DNA effects (bacterial DNA repair), Assay Code: REWT, Evaluation Type: Evaluation A (Pre-1980)) is on record?
**A.** no conclusion

**Q.** What about the mutagenic call (Species/Cell Type: Drosophila melanogaster, Assay Type: Sex-linked recessive lethal gene mutation, Assay Code: SRL-, Evaluation Type: Evaluation A (Pre-1980)) of the same compound?
**A.** inactive; negative

**Q.** What about the mutagenic call (Species/Cell Type: Escherichia coli WP2 UVRA, Assay Type: Tryptophan reverse gene mutation, Assay Code: WPU-*, Activation: With metabolic activation, Evaluation Type: Evaluation A (Pre-1980)) of the same compound?
**A.** inactive; negative

**Q.** What about the mutagenic call (Species/Cell Type: Escherichia coli polA (W3119 vs P3478), Assay Type: Rec-assay, DNA effects (bacterial DNA repair), Assay Code: RE1T, Evaluation Type: Evaluation A (Pre-1980)) of the same compound?
**A.** no conclusion

**Q.** What about the mutagenic call (Species/Cell Type: Fischer rat embryo (RLV/1706) cells, Assay Type: Cell transformation, viral enhanced, Assay Code: CTR-, Evaluation Type: Evaluation A (Pre-1980)) of the same compound?
**A.** inactive; negative

**Q.** What about the mutagenic call [6] of the same compound?
**A.** inactive; negative

**Q.** What about the mutagenic call (Species/Cell Type: Mouse (BALB/c-3T3) cells, Assay Type: Cell transformation, Assay Code: CTB+D, Dose Response: With dose response, Evaluation Type: Evaluation A (Pre-1980)) of the same compound?
**A.** active; positive

**Q.** And the call (Species/Cell Type: Nonhuman, Assay Code: CCG-, Evaluation Type: Evaluation A (Pre-1980))?
**A.** inactive; negative

**Q.** What about the mutagenic call (Species/Cell Type: Saccharomyces cerevisiae, Assay Type: Mitotic recombination or gene conversion, Assay Code: YEH-, Evaluation Type: Evaluation A (Pre-1980)) of the same compound?
**A.** inactive; negative

**Q.** And the mutagenic call (Species/Cell Type: Salmonella typhimurium (one or more of the five standard strains: TA98, TA100, TA1535, TA1537, and TA1538), Assay Type: Histidine reverse gene mutation, Ames assay, Assay Code: SAL-, Evaluation Type: Evaluation A (Pre-1980))?
**A.** inactive; negative

**Q.** What about the mutagenic call (Species/Cell Type: Syrian hamster embryo (SHE) cells, Assay Type: Cell transformation, clonal assay, Assay Code: CTC-, Evaluation Type: Evaluation A (Pre-1980)) of the same compound?
**A.** inactive; negative

**Q.** With `OC[P+](CO)(CO)CO` as the compound, how does the mutagenic call (Species/Cell Type: Mammalian polychromatic erythrocytes, Assay Type: Micronucleus test, chromosome aberrations, Assay Code: MNTT, Evaluation Type: Evaluation B (Post-1980)) read?
**A.** no conclusion

**Q.** With `Cc1cccc2ccc3c4ccccc4ccc3c12` as the compound, how does the mutagenic call [7] read?
**A.** active; positive

**Q.** For `CC1CO1` (stereo not given), which mutagenic call (Species/Cell Type: Chinese hamster ovary (CHO) cells, Assay Type: Forward gene mutation at the HPRT locus, Assay Code: CHO+, Evaluation Type: Evaluation B (Post-1980)) is on record?
**A.** active; positive

**Q.** And the mutagenic call [1]?
**A.** active; positive

**Q.** And the mutagenic call [8]?
**A.** active; positive

**Q.** What about the call (Species/Cell Type: Nonhuman, Assay Code: CCG+, Evaluation Type: Evaluation A (Pre-1980)) of the same compound?
**A.** active; positive

**Q.** And the mutagenic call [3]?
**A.** no conclusion

**Q.** And the mutagenic call (Species/Cell Type: Rodents, Sex: Male, Assay Type: Dominant lethal test, Assay Code: DLT-, Evaluation Type: Evaluation A (Pre-1980))?
**A.** inactive; negative

**Q.** What about the mutagenic call (Species/Cell Type: Schizosaccharomyces pombe, Assay Type: Reverse gene mutation, Assay Code: YEZ+, Evaluation Type: Evaluation A (Pre-1980)) of the same compound?
**A.** active; positive

**Q.** And the mutagenic call (Species/Cell Type: Syrian hamster embryo (SA7/SHE) cells, Assay Type: Cell transformation, viral enhanced, Assay Code: CT7+, Evaluation Type: Evaluation A (Pre-1980))?
**A.** active; positive

**Q.** How did the mutagenic call (Species/Cell Type: Human diploid fibroblasts, Assay Type: Unscheduled DNA synthesis (UDS) in vitro, DNA effects, Assay Code: UDH+*, Activation: With metabolic activation, Evaluation Type: Evaluation A (Pre-1980)) turn out when `Nc1c(Cl)cc(-c2cc(Cl)c(N)c(Cl)c2)cc1Cl` was run?
**A.** active; positive

**Q.** With `[Cl][Ir-2]([Cl])([Cl])([Cl])([Cl])[Cl]` as the compound, how does the mutagenic call [9] read?
**A.** active; positive

**Q.** `COc1cc(Cc2cnc(N)nc2N)cc(OC)c1OC` was tested. Which mutagenic call (Species/Cell Type: Neurospora crassa, Assay Type: Aneuploidy, chromosome aberrations, Assay Code: NEN+, Evaluation Type: Evaluation A (Pre-1980)) did it give?
**A.** active; positive

**Q.** What about the mutagenic call (Species/Cell Type: Nonhuman, Assay Type: Sister-chromatid exchange (SCE) in vitro, Assay Code: SC2+, Evaluation Type: Evaluation B (Post-1980)) of the same compound?
**A.** active; positive

**Q.** Which mutagenic call [2] does the source give for `Nc1ccc(-c2ccc(-c3ccc(N)cc3)cc2)cc1` here?
**A.** active; positive

**Q.** Which mutagenic call (Species/Cell Type: Human, Assay Type: Sister-chromatid exchange (SCE) in vitro, Assay Code: SC1T, Evaluation Type: Evaluation A (Pre-1980)) does the source give for `COc1c2occc2c(OC)c2c(=O)cc(C)oc12` here?
**A.** no conclusion

**Q.** What does the source list for `Oc1cc2cc3c(ccc4ccccc43)cc2c2ccccc12`?
**A.** mutagenic call (Species/Cell Type: Chinese hamster lung (V79) cells, Assay Type: Forward gene mutation at the HPRT or ouabain locus, Assay Code: V79+, Evaluation Type: Evaluation A (Pre-1980)): active; positive; mutagenic call (Species/Cell Type: Mouse prostate cells, Assay Type: Cell transformation, Assay Code: CTM-, Evaluation Type: Evaluation A (Pre-1980)): inactive; negative; mutagenic call (Species/Cell Type: Syrian hamster embryo (SHE) cells, Assay Type: Cell transformation, clonal assay, Assay Code: CTCT, Evaluation Type: Evaluation A (Pre-1980)): no conclusion

**Q.** Which mutagenic call [4] does the source give for `O=S(=O)(O)c1ccc(O)c(N=Nc2c(O)ccc3ccccc23)c1` here?
**A.** no conclusion

**Q.** How did the mutagenic call [9] turn out when `NC(=O)N/N=C/c1ccc([N+](=O)[O-])o1` was run?
**A.** active; positive

**Q.** And the mutagenic call (Species/Cell Type: Chinese hamster ovary (CHO) cells, Assay Type: Forward gene mutation at the HPRT locus, Assay Code: CHO-, Evaluation Type: Evaluation B (Post-1980))?
**A.** inactive; negative

**Q.** And the mutagenic call (Species/Cell Type: Escherichia coli WP2, Assay Type: Tryptophan reverse gene mutation, Assay Code: WP2T, Evaluation Type: Evaluation A (Pre-1980))?
**A.** no conclusion

**Q.** What about the mutagenic call (Species/Cell Type: Escherichia coli WP2 UVRA, Assay Type: Tryptophan reverse gene mutation, Assay Code: WPU+D, Dose Response: With dose response, Evaluation Type: Evaluation A (Pre-1980)) of the same compound?
**A.** active; positive

**Q.** And the mutagenic call (Species/Cell Type: Fischer rat embryo (RLV/1706) cells, Assay Type: Cell transformation, viral enhanced, Assay Code: CTR+, Evaluation Type: Evaluation A (Pre-1980))?
**A.** active; positive

**Q.** And the mutagenic call [6]?
**A.** inactive; negative

**Q.** What about the mutagenic call (Species/Cell Type: Mammalian polychromatic erythrocytes, Assay Type: Micronucleus test, chromosome aberrations, Assay Code: MNTT, Evaluation Type: Evaluation A (Pre-1980)) of the same compound?
**A.** no conclusion

**Q.** What about the mutagenic call (Species/Cell Type: Mouse, Sex: Male, Assay Type: Sperm morphology, Assay Code: SPI-, Evaluation Type: Evaluation A (Pre-1980)) of the same compound?
**A.** inactive; negative

**Q.** What about the mutagenic call (Species/Cell Type: Neurospora crassa, Assay Type: Forward gene mutation, Assay Code: NEF+, Evaluation Type: Evaluation A (Pre-1980)) of the same compound?
**A.** active; positive

**Q.** And the mutagenic call [8]?
**A.** active; positive

**Q.** And the mutagenic call (Species/Cell Type: Nonhuman bone marrow, Assay Type: Chromosome aberrations, in vivo, Assay Code: CY#-, Evaluation Type: Evaluation A (Pre-1980))?
**A.** inactive; negative

**Q.** What about the call (Species/Cell Type: Nonhuman, Assay Code: CCG+L, Evaluation Type: Evaluation A (Pre-1980)) of the same compound?
**A.** active; positive

**Q.** And the mutagenic call [5]?
**A.** active; positive

**Q.** For `O=C1C=C(N2CC2)c2ccccc2C1=O`, which mutagenic call [1] is on record?
**A.** active; positive

**Q.** How did the mutagenic call [7] turn out when `O=C1CCc2ccc3c(ccc4ccccc43)c21` was run?
**A.** active; positive
